# Assays:
# Pharmacokinetics in rats = format: in vivo, rat; settings: male, Sprague-Dawley, rat, plasma
# Protocol: We further evaluated the in vivo PK properties of compound ZLC491 and the counterpart 4m (without F substitution) in rats, and the results were summarized in Table 2. […] The PK profiles of F-containing compound ZLC491 were further improved.
# The pharmacokinetic investigation was taken by Shanghai Medicilon Inc. (Project Code: 26048-23001-NG). Sprague–Dawley male rats (Specific pathogen Free (SPF), provided by Zhejiang Vital River Laboratory Animal Technology Co. Ltd.) were dosed with ZLC491 solution formulation (5% DMSO, 10% Solutol, 85% normal saline, 2.5 mg/kg for intravenous dose, 10 mg/kg for oral dose) or compound 4m solution formulation (5% DMSO, 10% Solutol, 85% (20%HP-β-CD), 2.5 mg/kg for intravenous dose, 10 mg/kg for oral dose). Blood samples were collected at 0.083, 0.25, 0.5, 1, 2, 4, 8, and 24 h in intravenous administration, 0.25, 0.5, 1, 2, 4, 6, 8, and 24 h in oral administration. The blood samples were collected from sets of three rats at each time point in labeled microcentrifuge tubes containing heparin sodium as an anticoagulant. Plasma samples were separated by centrifugation (2–8 °C, 6800g for 6 min) within 1 h and stored below −80 °C until bioanalysis. All samples were processed for analysis by precipitation using acetonitrile and analyzed with a partially validated LC/MS/MS method. Pharmacokinetic parameters were calculated using the noncompartmental analysis tool of WinNonlin Enterprise software.
# CDK12/13 = assay: Immunoblotting of CDK12/13 in MDA-MB-231 cells (time course, negative control, series comparison); format: cell-based, human; settings: 1 μM
# Protocol: To further characterize the compound, we determined the half-degradation concentration (DC50) values of ZLC491 in MDA-MB-231 cells. […] We also treated MDA-MB-231 cells with 1 μM ZLC491 at various time points.
# (A) Immunoblotting of CDK12 and CDK13 in MDA-MB-231 cells treated with increasing concentrations of ZLC491 for 15 h (left). Percent remaining CDK12 and CDK13 proteins were plotted for DC50 determination (right). Protein levels were quantified using ImageJ and normalized to corresponding α-tubulin, then plotted using Graphpad Prism 8.0. The data were representative of three independent experiments; (B) immunoblotting of CDK12 and CDK13 proteins in MDA-MB-231 cells treated with ZLC491 for various time points; immunoblotting of CDK12 and CDK13 in HCC38 (C) and MDA-MB-436 (D) cells treated with increasing concentrations of ZLC491 for 15 h. α-Tubulin was used as a loading control. TEXT PRINTED IN THE PICTURE: (A) ZLC491: MDA-MB-231: CDK12 DC50 = 0.032μM; MDA-MB-231: CDK13 DC50 = 0.028μM DOUBTS OF THE COPYIST ABOUT THIS PICTURE: ZLC491, CDK12 DC50: 0.032 read from small print, the digits 3 and 2 are uncertain / ZLC491, CDK13 DC50: 0.028 read from small print, the last digit may be 8, 6 or 3
# Figure 4 ZLC491 induced CDK12/13 degradation in a CRBN- and proteasome-dependent fashion. […]
smiles,measurement,setting,value
"N#Cc1ccc(N[C@H]2CC[C@H](N(C(=O)NCc3ccccc3)c3ccc(N4CCN(C5CCN(c6cc7c(cc6F)C(=O)N(C6CCC(=O)NC6=O)C7=O)CC5)CC4)cc3)CC2)nc1 (stereo partly drawn) [ZLC491, 3-Benzyl-1-((1r,4r)-4-((5-cyanopyridin-2-yl)amino)cyclohexyl)-1-(4-(4-(1-(2-(2,6-dioxopiperidin-3-yl)-6-fluoro-1,3-dioxoisoindolin-5-yl)piperidin-4-yl)piperazin-1-yl)phenyl)urea]",AUC(0-t) at 24 h,"Pharmacokinetics in rats; iv, i.v. 2.5 mg/kg",6820 ng·h/mL
same,Cmax at 24 h,"Pharmacokinetics in rats; iv, i.v. 2.5 mg/kg",4590 ng/mL
same,clearance at 24 h,"Pharmacokinetics in rats; iv, i.v. 2.5 mg/kg",6.38 mL/min/kg
same,half-life at 24 h,"Pharmacokinetics in rats; iv, i.v. 2.5 mg/kg",2.46 h
same,bioavailability at 24 h,"Pharmacokinetics in rats; oral bioavailability, p.o. 10 mg/kg vs i.v. 2.5 mg/kg",46.8%
same,AUC(0-t) at 24 h,"Pharmacokinetics in rats; po, p.o. 10 mg/kg",12800 ng·h/mL
same,Cmax at 24 h,"Pharmacokinetics in rats; po, p.o. 10 mg/kg",1310 ng/mL
same,half-life at 24 h,"Pharmacokinetics in rats; po, p.o. 10 mg/kg",2.92 h
same,time at which significant reduction of CDK12/13 is observed,CDK12/13,≤ 4 h

# Source: publication PMC11513923, “Discovery of ZLC491 as a Potent, Selective, and Orally Bioavailable CDK12/13 PROTAC Degrader” (Journal of Medicinal Chemistry, 2024)
